In PubChem BioAssay (NCI):
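GI50 is the concentration that inhibits growth by half. At the TGI there is no net growth.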

Legend:
Assay in all cases: NCI-60 cell line screen, 384-well format
[1] = test system: 786-0 renal
[2] = test system: A549 NSCLC
[3] = test system: ACHN renal
[4] = test system: BT-549 breast
[5] = test system: CAKI-1 renal
[6] = test system: CCRF-CEM leukemia
[7] = test system: COLO 205 colon
[8] = test system: DU-145 prostate
[9] = test system: EKVX NSCLC
[10] = test system: HL-60(TB) leukemia
[11] = test system: HOP-92 NSCLC
[12] = test system: HS 578T breast
[13] = test system: HT29 colon
[14] = test system: IGROV1 ovarian
[15] = test system: K-562 leukemia
[16] = test system: LOX IMVI melanoma
[17] = test system: MALME-3M melanoma
[18] = test system: MCF7 breast
[19] = test system: MDA-MB-231 breast
[20] = test system: MDA-MB-435 melanoma
[21] = test system: MDA-MB-468 breast
[22] = test system: NCI-H226 lung
[23] = test system: NCI-H23 lung
[24] = test system: NCI-H460 NSCLC

Compound: Cc1ccc2c(N)c(C(=O)N[C@H]3CCc4cc(N5CC6CCC(C5)N6)ccc4C3)sc2n1
- GI50 [1]: 229 nM
- TGI [1]: 997 nM
- GI50 [2]: 222 nM
- TGI [2]: 1060 nM
- GI50 [3]: 101 nM
- TGI [3]: 707 nM
- GI50 [4]: 154 nM
- TGI [4]: 423 nM
- GI50 [5]: 234 nM
- TGI [5]: 1110 nM
- GI50 [6]: 42.3 nM
- TGI [6]: 133 nM
- GI50 [7]: 164 nM
- TGI [7]: 532 nM
- GI50 [8]: 104 nM
- TGI [8]: 605 nM
- GI50 [9]: 251 nM
- TGI [9]: 836 nM
- GI50 [10]: 32 nM
- TGI [10]: 108 nM
- GI50 [11]: 373 nM
- TGI [11]: 1640 nM
- GI50 [12]: 180 nM
- TGI [12]: 543 nM
- GI50 [13]: 386 nM
- TGI [13]: 4350 nM
- GI50 [14]: 300 nM
- TGI [14]: 1120 nM
- GI50 [15]: 74.5 nM
- TGI [15]: 1080 nM
- GI50 [16]: 88.7 nM
- TGI [16]: 268 nM
- GI50 [17]: 164 nM
- TGI [17]: 443 nM
- GI50 [18]: 94.9 nM
- TGI [18]: 1110 nM
- GI50 [19]: 219 nM
- TGI [19]: 972 nM
- GI50 [20]: 207 nM
- TGI [20]: 804 nM
- GI50 [21]: 206 nM
- TGI [21]: 691 nM
- GI50 [22]: 178 nM
- TGI [22]: 713 nM
- GI50 [23]: 211 nM
- TGI [23]: 594 nM
- GI50 [24]: 66.1 nM
